In patent US20030203969A1, “Pharmaceutically active aromatic guanylhydrazones” (priority 2000, published 2003):

What was measured:
PI-resistant HIV-1 = experiment: Inhibition of multiple anti-retroviral drug resistant HIV-1 strains: PI-resistant; assay type: cell-based
Description: In addition, various different “types” of multiple anti-retroviral drug resistant HIV-1 strains were also tested: […]

E. Coli XL-1 blue strain = experiment: Growth assay for E. coli (optical density at 610 nm); assay type: cell-based; conditions: LB medium, 37° C., one day; read-out: IC50 (μM) E. coli proliferation
Description: We used the E. Coli XL-1 blue strain (Stratagene) for the investigation of antibacterial activity. During this experiments LB medium was used for E. coil growth. LB was prepared as follows: 1% trypton (weight/volume), 0.5% Yeast extract (weight/volume), and 1.5% NaCl (weight/volume) were dissolved in water and autoclaved. The media contained the inhibitor at 100 μM, 10 μM, or 1 μM concentrations, respectively.
The assay was performed as follows: bacteria were seeded to 96-well plates containing the respective inhibitors. The bacteria-containing plates were incubated at 37° C. for one day. After incubation time, E. coli growth was assayed by the measurement of the optical density at 610 nm wavelength.

HepG2-2.2.15 cells = experiment: Cell viability of HepG2-2.2.15 cells (dye uptake); assay type: cell-based, human; conditions: inhibits cell growth by 50%, read-out: TC50 (the source's name)
Description: Human HepG2-2.2.15 cells (ATCC Cat. No. CRL-11997), chronically infected with HBV, are plated in 96-well microtiter plates in DMEM medium supplemented with fetal bovine serum. After incubation at 37° C. in a humidified, 5% CO2 environment for 16-24 hours, the monolayer of HepG2-2.2.15 cells is washed and the medium is replaced with complete medium containing various concentrations of test compound. Every three days during the experiments, the culture medium is replaced with fresh medium containing the appropriately diluted test compound. Six days following the initial administration of the test compound, the cell culture supernatant is collected and clarified by centrifugation. The cell viability is evaluated by a dye uptake procedure (Promega's Cell Titer Aqueous One Solution). Virion-associated HBV DNA present in the tissue culture supernatant is amplified employing PCR technology using primer pairs derived from the HBV strain ayw. Subsequently, the PCR-amplified HBV DNA is detected in real-time by monitoring increases in fluorescence signals that result from exonucleolytic degradation of a quenched fluorescent probe molecule following hybridization of the probe to the amplified HBV DNA (TaqMan; Perkin-Elmer).

HIV = experiment: Relevant HIV cellular systems (summary statements); assay type: cell-based
From the text: Thus another aspect of the present invention is directed to the use of the compounds of the general formula (I) and/or pharmaceutically active salts as inhibitors of elF-5A activation and HIV replication.
The present invention therefore provides a genus of guanylhydrazone-substituted compounds that are useful as inhibitors of HIV-1, HIV-2, HTLV-I as well as for treating diseases associated with those viruses.

P3HR-1 cells = experiment: Compound toxicity in P3HR-1 cells (Cell Titer Aqueous One); assay type: cell-based, human; conditions: P3HR1 cells; read-out: TC50 (the source's name)
Description: Human P3HR-1 cells are latently infected with EBV. Culturing these cells in the presence of phorbol ester induces a lytic infection cycle, resulting in stimulation of viral replication within the cells. Compound efficacy in this assay is determined using TaqMan PCR technology, and compound toxicity is measured by addition of Promega's Cell Titer Aqueous One Solution (metabolic dye).
6. Duplicate plates are set up plating media in place of TPA for evaluation of compound toxicity.
6. Twenty micorliters of Cell Titer Aqueous One Solution (Promega) is added to each well of the toxicity plates. Plates are incubated at 37° C. in a humidified CO2 incubator for 4 hours or until sufficient color development has occurred. Plates are read on a VMax microtiter plate reader at a wavelength of 490/650 nm. Toxicity of the test compound is determined by comparing the optical density of test wells with that of control wells.

[1] = system: Respiratory Syncytial Virus (Long); assay type: cell-based
Description: A cytoprotection assay procedure using MTS is employed to evaluate compounds for antiviral activity against Respiratory Syncytial Virus (Long) in Vero (African green monkey, ATCC Cat. No. CCL-81) cells. The cells are pre-grown overnight at 37° C. (2×10^4/well in 96 well tissue culture plates) with 10% fetal Bovine serum containing Minimum Essential Medium. The positive control for the assay is Interferon-Gamma/Ribavirin. The infection medium contains reduced serum levels (2% FBS).
Using half log dilutions with high test starting at 100 μg/ml the drug dilutions are made and added to triplicate cultures in 0.1 ml volume and pre-titrated virus suspension is also added in 0.1 ml volume. Cell control containing medium alone, virus controls containing medium and virus, the drug toxicity controls containing medium and each drug concentrations are run simultaneously with the test samples. […] CPE inhibition is determined by dye uptake procedure (Celltiter-MTS). Celltiter reagent contains a novel tetrazolium (MTS) compound and an electron coupling reagent phenazine ethosulfate (PES). MTS-tetrazolium is bioreduced by cells into a colored formazan product that is soluble in tissue culture medium. This conversion is accomplished by NADPH or NADH produced by dehydrogenase enzymes in metabolically active cells. The amount of soluble formazan produced by cellular reduction of the MTS is measured by the absorbance at 490 nm. The quantity of formazan product as measured by the amount of 490 nm absorbance is directly proportional to the number of living cells in the culture thus allowing the rapid quantitative analysis of the inhibition of virus-induced cell killing by the test substances. […]
The inhibitory drug concentration which reduces the viral replication by 95% (IC95) and the minimum drug concentration which inhibits cell growth by 95% (TC95) are calculated by using a regression analysis program for semilog curve fitting. A therapeutic (selectivity) index (TI) for compound No. 4 is determined by dividing the TC95 by the IC95.

## CC(=NNC(=N)N)c1cc(NC(=O)CCCCCCCCC(=O)Nc2cc(C(C)=NNC(=N)N)cc(C(C)=NNC(=N)N)c2)cc(C(C)=NNC(=N)N)c1 [Compound 4, N,N′-bis (3,5-diacetylphenyl) decane diamide tetrakis (amidinohydrazone)]
PI-resistant HIV-1; PI-resistant HIV-1, 0.5 μM
  [%] inhibition of virus replication: 50%
PI-resistant HIV-1; PI-resistant HIV-1, 1.0 μM
  [%] inhibition of virus replication: 95%
E. Coli XL-1 blue strain
  IC50: 1 µM
HepG2-2.2.15 cells
  CC50: > 20 µM
HIV; HIV cellular systems
  cellular toxicities at effective antiviral dosages: without apparent cellular toxicities
HIV; T-cell-tropic, macrophage-tropic, primary patient isolates, multidrug-resistant HIV strains
  inhibition of HIV replication: submicromolar range
P3HR-1 cells
  CC50: 21.8 µM
[1]; RSV, at the IC95/TC95 level
  Comment: Active
[1]; Vero cells newly infected with RSV
  IC50: 1.46 µM
[1]; reduces the viral replication by 95%
  IC95: 2.96 µM
